According to patent publication US8119694B2, “High concentration local anesthetic formulations” (priority 2008, dated 2012):

Test: Compatibility study of drug at 40% w/w in solvent blends
Assay type: physicochemical
Settings: two week samples at accelerated conditions versus initial samples
Protocol: The solubility and compatibility of lidocaine and lidocaine HCl in solvents typically used in topical pharmaceutical products was assessed in order to direct the formulation development efforts.
Initially, the solubility of lidocaine and lidocaine hydrochloride was evaluated in single solvents with varying lipophilicity. […] Based on the single solvent data, a compatibility study was initiated to evaluate the chemical stability of the drug at a concentration of 40% w/w in a variety of solvent blends that would form the base of potential prototype gel or cream formulations.

CCN(CC)CC(=O)Nc1c(C)cccc1C [lidocaine]
chemical compatibility (potency) in solvent blends: absence of a drop in potency
